Values of other authors as cited in article PMC4323000 (Oncotarget, 2015).

How the values were obtained:
[1] = human; GF120918 oral; ref [13],[21],[35],[45]–[48] (GF120918), [26],[50],[51] (Telatinib); cited from earlier work
[2] = oral; ref per compound in Table 2; cited from earlier work
[3] = system: ABCG2-overexpressing tumors; conditions: cited from earlier work
ABCG2 = conditions: ref per compound in Table 2; cited from earlier work

Compound: CNC(=O)c1cc(COc2nnc(Nc3ccc(Cl)cc3)c3ccoc23)ccn1 [Telatinib]
- In vivo Toxicity, Chronic [1]: >1 500 mg (human)
- In vivo Toxicity, Acute [2]: >15 mg/kg oral
- In vivo Impact on Tumor growth ([3]; ref per compound in Table 2): Yes
- effect on ABCG2-overexpressing tumors ([3]; telatinib 15 mg/kg in combination with doxorubicin […], xenografted nude mouse model): significantly decrease the growth rate and tumor size
- In vitro ABCG2 Specificity (ABCG2): No
